One compound from publication PMC8621570, “Mechanistic Studies of Antibiotic Adjuvants Reducing Kidney’s Bacterial Loads upon Systemic Monotherapy” (Pharmaceutics, 2021) can be followed below.

Test [1] relates to E. coli ΔacrAB mutant AG100A. Kind of test: microbe, parasite or virus in culture. As to conditions: isogenic ΔacrAB mutant AG100A. Type of test: cell-based, Escherichia coli. Here is the method: (§1) Bacteria:Escherichia coli strains: 25922 and 35218 (ATCC, Manassas, VA, USA), 14182 (clinical isolate), Ag100 and Ag100A [34] (ΔacrAB) are two K-12 isogenic mutantsand the engineered mutant ML-35p. Additional ESKAPE species tested: Klebsiella pneumoniae strains 1287 and 224 (clinical isolates), Acinetobacter baumannii ATCC strain 19606, Pseudomonas aeruginosa ATCC strains 9027 and 27853. Bacteria were grown in Luria–Bertani (LB) broth (0.5% NaCl, 0.5% yeast extract, 1% tryptone, pH = 7), except for E. coli ML-35p that was grown in tryptic-soy broth.
(§2) Peptide self-assembly was determined by static light scattering measurements as described. Hemolysis was determined by measuring hemoglobin leakage from washed human RBCs, as described. Minimal inhibitory concentration (MIC) was determined using the microdilution assay, as described. Bactericidal kinetics were determined by mixing bacteria with rifampin, OAC, or their combinations, as described. Data were obtained from three independent assays performed in duplicate.
(§3) The wild-type E. coli strain AG100 and its isogenic ΔacrAB mutant AG100A were used to determine the MIC of OACs and of two known acrAB-TolC substrates: the AMP LL-37 and the macrolide antibiotic erythromycin that are normally inefficient against GNB.

The subject of the next test is E. coli strain AG100. Kind of test: microbe, parasite or virus in culture. Type of test: cell-based, Escherichia coli. As to conditions: strain AG100. Here is the method:
as §1, §2, §3

The test system of another test is P. aeruginosa 27853. Kind of test: Excisional skin wound infection model, topical treatment. Particulars: 4 h treatment, mice n = 3 per group. Type of test: in vivo, mouse. Here is the method: Animals: All animal studies were performed using male ICR mice (25 ± 2 gr). The Technion Animal Care and Use committee approved all procedures, care, and handling of animals. Ethics approval codes: IL0800519, IL0640421, IL0550618, IL1811217.
For efficacy assessments, three infection models were used including one with topical treatment and two with systemic treatment. • Excisional skin wound infection model: mice were anesthetized by intraperitoneal administration of a mixture of ketamine 100 mg/kg and xylazine 5 mg/kg in PBS and their backs shaved with electric clippers. The following day mice were similarly anesthetized and were administrated (S.C) 0.05 mg/kg buprenorphine (for pain relief). A 5 mm diameter piece of skin was removed from the middle of the shaved back, with sterile biopsy punch resulting in a full-thickness injury. A total of 20 µL of a mid-logarithmic culture, containing 5 × 10^6 CFU P. aeruginosa 27853 were applied on the wound. Then, 15 min after inoculation, about 50 µL of hypromellose gel (prepared as described) containing OAC, antibiotic, or their combination were applied on the skin and covered with a piece of medical tape. As a control, the vehicle (drug-free gel) was similarly applied on the skin. After a treatment period of 4 h, about 8 mm diameter of skin surrounding the infected area was removed, suspended in PBS, homogenized, serially diluted 10-fold, and plated for CFU enumeration. The number of viable bacteria was determined after overnight incubation at 37 °C. The lower limit of detection was 50 CFU/wound. • Thigh infection model (TI): mice were inoculated intramuscularly with 1 × 10^6 CFU/mouse of mid-logarithmic E. coli 25922 and treated subcutaneously 1 and 3 h after inoculation. Mice were sacrificed 24 h after infection, their thighs excised, homogenized, serially diluted 10-fold, and plated for CFU enumeration. The number of viable bacteria was determined after overnight incubation at 37 °C. […] The number of viable bacteria was determined after overnight incubation at 37 °C. […]

Consider `CCCCC=CCCCCCCCC(=O)N[C@@H](CCCN)C(=O)N[C@@H](CCCN)C(=O)NCCCCCCCCCC(=O)N[C@@H](CCCN)C(N)=O` [C14(ω5)OOc10O], for which the “MIC, Ag100A” value in test [1] is listed as 6.2 µM. Also, the MIC in the test on E. coli strain AG100 is listed as 25 µM. For the same compound, the results for the “Reduction of CFU count” value in the test on P. aeruginosa 27853 (hypromellose gel 0.2% (w/v)) and in the test on P. aeruginosa 27853 (hypromellose gel 1% (w/v)) were 0.5 log10 units and 1.9 log10 units, respectively.
